Where a SMILES comes first, the peptide text is derived from it.
Experiments:
[1] = Comparison of stability constants in methanol and acetonitrile, chloride; format: binding; conditions: 25 °C
Protocol: (§1) Fluorimetric titrations were conducted on Varian Cary Eclipse Fluorimeter, UV-Vis spectra were recorded by Agilent Cary 5000 spectrophotometer, and CD spectra were recorded on JASCO J815 spectrophotometer. Fluorimeter and UV-Vis spectrophotometer were connected to thermostating device, whereas CD titrations were performed at room temperature. The excitation wavelength used in all fluorimetric titrations was 260 nm, spectra were recorded at 2 nm interval with 0.4 s integration time, 10 nm excitation, and emission slits were used. In titrations with iodide, the obtained spectra were corrected by the anion concentration dependent solvent emission spectra. […] CD spectra were recorded in the 200–300 nm wavelength range with a 0.2 nm data pitch and scanning speed of 200 nm/min; 2 scans were accumulated for each spectrum. […]
^1H NMR titrations were carried out at 25 °C by means of a Bruker Avance III HD 400 MHz with a solvent signal used as a standard. […] Spectra were recorded at 16 pulses. ^1H NMR spectra were processed and visualized by means of MestReNova 6.1 software (Mestrelab Research, Santiago de Compostela, Spain). Stability constants of the corresponding complexes were determined from the obtained ^1H NMR spectra by using multivariate analysis implemented in HypNMR 4.0 software (Protonic Software, Leeds, UK) included in the Hyperquad program package. […]

[2] = Isothermal titration calorimetry (microcalorimetry) of L with chloride; format: binding; conditions: acetonitrile, 25.0 °C, measurements repeated three times
Protocol: Microcalorimetric measurements were conducted with an isothermal titration calorimeter Microcal VP-ITC at 25.0 °C. Thermograms were processed using the Microcal OriginPro 7.0 program (OriginLab Corporation, Northampton, MA, USA).
In the calorimetric studies of chloride complexation by L, the enthalpy changes were recorded upon stepwise additions of salt solution into the solution of cyclopeptide ligand (V0 = 1.4 cm^3). The heats measured in the titration experiments were corrected for the heats of titrant dilution obtained by blank experiments. The dependence of successive enthalpy changes on the titrant volume was processed by non-linear least-squares fitting procedure using OriginPro 7.5 program (OriginLab Corporation, Northampton, MA, USA). Measurements were repeated three times.

[3] = Comparison of stability constants in methanol and acetonitrile, bromide; format: binding; conditions: 25 °C
Protocol: as §1
^1H NMR titrations were carried out at 25 °C by means of a Bruker Avance III HD 400 MHz with a solvent signal used as a standard. […] Spectra were recorded at 16 pulses. ^1H NMR spectra were processed and visualized by means of MestReNova 6.1 software (Mestrelab Research, Santiago de Compostela, Spain). Stability constants of the corresponding complexes were determined from the obtained ^1H NMR spectra by using multivariate analysis implemented in HypNMR 4.0 software (Protonic Software, Leeds, UK) included in the Hyperquad program package.

[4] = Solubility determination of L (saturated solutions, spectrophotometric); format: physicochemical
Protocol: Saturated solutions of L in acetonitrile and methanol were prepared by adding an excess amount of the solid substance to the solvent. The obtained mixtures were left in a thermostat at 25 °C for several days in order to equilibrate. The concentrations of saturated solutions were determined at 25.0 °C spectrophotometrically by means of a Varian Cary 5000 spectrophotometer equipped with a thermostatting device. Calibration curves were obtained by measuring the absorbances of solutions of known concentrations.

[5] = cited from earlier work
From the text: The reaction enthalpy (−15 kJ mol^−1) and entropy (65 J mol^−1 K^−1) for L-Cl complex formation are close to the corresponding values for complexation of chloride with cyclopentaleucine (∆rH = −11 kJ mol^−1, ∆rS = 76 J mol^−1 K^−1). Therefore, the inclusion of fluorescent groups to the cyclopeptide sidechain improved the anion detection capability ...

Decrease in stability constant in methanol compared to acetonitrile, in the log K value [1]	Decrease in stability constant in methanol compared to acetonitrile, in the log K value [3]	Transfer Gibbs energy of L (MeCN→MeOH) ([4]; determined from ligand solubilities in acetonitrile and methanol, 25 °C)	Solubility of free L in acetonitrile ([4]; thermodynamic, excess solid in acetonitrile, equilibrated several days at 25 °C, saturated solution measured spectrophotometrically (UV) at 25.0 °C with calibration curve)	Solubility of free L in methanol ([4]; thermodynamic, excess solid in methanol, equilibrated several days at 25 °C, saturated solution measured spectrophotometrically (UV) at 25.0 °C with calibration curve)	Compound	Reaction enthalpy for L-Cl complex formation [2] [kcal/mol]	Reaction entropy for L-Cl complex formation [2] [J mol^−1 K^−1]	∆rH for complexation of chloride with cyclopentaleucine [5] [kcal/mol]	∆rS for complexation of chloride with cyclopentaleucine [5] [J mol^−1 K^−1]
about 4.5	~3.5	negligible	(2.72 ± 0.02) × 10^−3 mol dm^−3	(2.81 ± 0.03) × 10^−3 mol dm^−3	O=C1N[C@@H](Cc2ccccc2)C(=O)N[C@@H](Cc2ccccc2)C(=O)N[C@@H](Cc2ccccc2)C(=O)N[C@@H](Cc2ccccc2)C(=O)N[C@H]1Cc1ccccc1 [L, cyclopentaphenylalanine] (cyclo(FFFFF))	-3.59	65	–	–
–	–	–	–	–	cyclopentaleucine	–	–	-2.63	76
